Data on one compound can be found in paper PMC6795878, “Pentagamavunon-1 (PGV-1) inhibits ROS metabolic enzymes and suppresses tumor cell growth by inducing M phase (prometaphase) arrest and cell senescence” (Scientific Reports, 2019).

The IC50 is the concentration at which inhibition is half-maximal.

This assay has as its target T1, GST-P1 (Homo sapiens, UniProt P09211).
T1 construct: gene GSTP1; 6xHis-tagged GST-P1 recombinant protein
Nature of the assay: GSH-CDNB conjugation assay with purified recombinant enzyme; also PGV-1 bead pulldown competed by glutathione. The format is biochemical.

T1 sequence (P09211 2-210): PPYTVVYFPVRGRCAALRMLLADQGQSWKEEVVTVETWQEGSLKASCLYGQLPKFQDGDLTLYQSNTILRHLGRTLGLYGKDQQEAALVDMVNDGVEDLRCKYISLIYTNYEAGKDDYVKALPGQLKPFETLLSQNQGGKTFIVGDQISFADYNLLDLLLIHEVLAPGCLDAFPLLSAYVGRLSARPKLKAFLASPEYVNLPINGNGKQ

On to `Cc1cc(/C=C2\CC/C(=C\c3cc(C)c(O)c(C)c3)C2=O)cc(C)c1O` [PGV-1], for which the IC50 was 97.6 ± 3.8 µM.
